Here are results for 3 compounds from PMC6039382 (Journal of Cardiovascular Pharmacology, 2018).

The structures appear in SMILES notation. Residue numbers refer to the chain shown, from its start. “Also recorded” adds a separate entry of the source.

One assay relates to PPAR-α. The note with it: cited from earlier work.
The target of a further assay is T1, mouse PPAR-α (Mus musculus, UniProt P23204).
T1 sequence (P23204 239-466 limits assumed): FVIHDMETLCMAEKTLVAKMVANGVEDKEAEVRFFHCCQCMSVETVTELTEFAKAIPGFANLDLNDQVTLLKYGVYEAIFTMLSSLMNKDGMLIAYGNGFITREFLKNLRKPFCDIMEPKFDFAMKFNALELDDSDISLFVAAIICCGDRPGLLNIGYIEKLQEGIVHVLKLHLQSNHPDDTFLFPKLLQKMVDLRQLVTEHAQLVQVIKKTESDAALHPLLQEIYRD
As to the kind of experiment: PPAR-α agonist transactivation assay, Gal4-LBD luciferase reporter cells. The class given is cell-based. The note with it: gemcabene up to 300 μM. Background: A reporter such as luciferase makes a cellular process visible.

The target in another assay is T2, human PPAR-α (Homo sapiens, UniProt Q07869).
T2 sequence (Q07869 239-466 limits assumed): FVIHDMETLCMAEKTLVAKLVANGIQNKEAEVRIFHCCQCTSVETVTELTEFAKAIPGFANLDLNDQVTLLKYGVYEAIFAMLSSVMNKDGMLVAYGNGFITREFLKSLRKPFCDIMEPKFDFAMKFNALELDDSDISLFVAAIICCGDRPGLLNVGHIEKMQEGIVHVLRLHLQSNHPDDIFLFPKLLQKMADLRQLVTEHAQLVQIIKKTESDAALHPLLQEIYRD
The assay is described as above. The class given is cell-based.

In another assay the target is T3, human PPAR-γ (Homo sapiens, UniProt P37231).
T3 sequence (P37231 238-503 limits assumed): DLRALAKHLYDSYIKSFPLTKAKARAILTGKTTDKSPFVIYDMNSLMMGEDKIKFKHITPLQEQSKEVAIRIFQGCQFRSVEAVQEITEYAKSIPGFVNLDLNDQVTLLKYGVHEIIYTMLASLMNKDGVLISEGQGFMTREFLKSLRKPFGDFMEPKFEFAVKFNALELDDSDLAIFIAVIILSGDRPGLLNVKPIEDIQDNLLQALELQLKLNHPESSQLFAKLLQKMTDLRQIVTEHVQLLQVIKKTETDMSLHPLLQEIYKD
Kind of assay: PPAR-γ agonist transactivation assay, Gal4-LBD luciferase reporter cells.

The next assay deals with T4, rat PPAR-α (Rattus norvegicus, UniProt P37230).
T4 sequence (P37230 239-466 limits assumed): T1 sequence (P23204 239-466 limits assumed) with D27N
Kind of assay: PPAR-α agonist transactivation assay, Gal4-LBD luciferase reporter cells. The class given is cell-based. To be noted: gemcabene up to 300 μM.

In the next assay the test system is PPAR-γ. As to the kind of experiment: PPAR-γ agonist transactivation, statements made jointly for all species. The format is cell-based, human, mouse, rat.

Turning to `Cc1ccc(C)c(OCCCC(C)(C)C(=O)O)c1` [Gemfibrozil], in the assay with PPAR-α, the “IC50/EC50 [Literature]” value was 193 µM.
Take `COc1ccc(OC(=O)N(CC(=O)O)Cc2ccc(OCCc3nc(-c4ccccc4)oc3C)cc2)cc1` [Muraglitazar]: the “agonist activity (in words)” value at mouse PPAR-α is “not against mouse and rat PPAR-α”; at human PPAR-α (gemcabene up to 300 μM), “agonist activity”; on human PPAR-γ, “agonist activity”; at rat PPAR-α, “not against mouse and rat PPAR-α”. Further, the maximal activation on human PPAR-α is on record as 19 fold. The activation on human PPAR-γ (maximal) is 16 fold.
On to `CN(CCOc1ccc(CC2SC(=O)NC2=O)cc1)c1ccccn1` (centres unmarked) [Rosiglitazone], for which the “Comments / agonist activity in words” value in the assay with PPAR-γ is on record as “strong activation; also recorded: potent agonist activity”.
